Laboratory results reported in patent publication US9220706B2, “Inhibition of leukemic stem cells by PP2A activating agents” (Ohio State Innovation Foundation, priority 2012, dated 2015).
Where a name gives a salt, the structure may show the parent alone.

Experiments:
[1] = tested on: CML cells (CFSE^max/CD34^+, CD34^+/CD38^−, CD34^+); experiment: Annexin-V/7-AAD apoptosis staining; type: cell-based, human; conditions: for effect on FTY720-induced apoptosis of quiescent cells: CD34^+ CML cells, GSK-3β inhibitor with FTY720
Method: (§1) CFSE-mediated tracking of cell division. Carboxyfluorescein diacetate succinimidyl diester (CFSE)-stained cells (CellTrace CFSE Proliferation Kit: Invitrogen) were cultured in the presence of the indicated drugs (dosed at time zero and at day three), and the cells were harvested after 3 or 6 days in culture, and stained with anti-CD34 PE, Annexin-V V450, and the viability stain 7-AAD (BD Bioscience) to determine the number of viable quiescent cells (CFSEmax/CD34^+/7-AAD− cells) and the percentage of quiescent and apoptosis-committed cells (CFSEmax/CD34+/Annexin V+/7-AAD±). Cells were sorted into dividing and quiescent populations for Western blot analysis. For assessment of mouse quiescent leukemic HSCs, Lin- cells from 8 week-induced SCLtTA/BCR-ABL1 mice were CFSE-stained and used as described above. Quiescent cells (CFSE^max/CD34^+) were reported as a fraction of the initial number of CD34^+ cells.

[2] = tested on: CFSE^max/CD34^+ CML cells; experiment: CFSE-mediated tracking of quiescent cells, CML; type: cell-based, human
Method: as §1

S1PR1 = S1PR1 (Homo sapiens, UniProt P21453); experiment: S1PR1 internalization; type: cell-based
S1PR1, sequence (P21453 whole entry, species assumed): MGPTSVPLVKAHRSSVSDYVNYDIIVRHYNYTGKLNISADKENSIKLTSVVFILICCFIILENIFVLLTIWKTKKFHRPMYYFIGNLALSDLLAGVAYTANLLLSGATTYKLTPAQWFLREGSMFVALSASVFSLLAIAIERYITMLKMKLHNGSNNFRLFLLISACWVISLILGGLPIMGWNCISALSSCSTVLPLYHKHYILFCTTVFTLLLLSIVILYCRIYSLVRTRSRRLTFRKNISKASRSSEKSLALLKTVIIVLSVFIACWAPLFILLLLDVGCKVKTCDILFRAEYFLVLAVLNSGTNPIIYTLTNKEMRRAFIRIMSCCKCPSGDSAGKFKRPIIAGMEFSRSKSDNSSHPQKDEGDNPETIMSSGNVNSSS

B lymphocytes = experiment: B-lymphopenia induction; conditions: in vivo
PP2A [3] = target: T1, PP2A (Homo sapiens, UniProt P67775); experiment: PP2A phosphatase assay; type: cell-based
T1 construct: PP2Ac assays from whole cell lysates; endogenous in cells; host or cells: CD34+/CD38- and CD34+/CD38+ primary CML and normal bone-marrow cells; immunoprecipitated with Millipore PP2Ac antibody
T1 sequence (P67775 whole entry): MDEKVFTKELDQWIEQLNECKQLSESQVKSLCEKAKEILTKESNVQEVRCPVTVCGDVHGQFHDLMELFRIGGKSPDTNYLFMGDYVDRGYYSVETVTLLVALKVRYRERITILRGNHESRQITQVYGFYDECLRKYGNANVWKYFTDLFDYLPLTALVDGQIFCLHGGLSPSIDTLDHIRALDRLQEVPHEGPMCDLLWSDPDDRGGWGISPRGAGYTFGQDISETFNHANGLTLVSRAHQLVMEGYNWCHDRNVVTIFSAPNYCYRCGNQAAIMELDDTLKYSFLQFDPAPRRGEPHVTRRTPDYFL
Method: PP2A phosphatase assay. PP2Ac assays from whole cell lysates were carried out using the PP2Ac immunoprecipitation phosphatase assay kit (Millipore). Briefly, protein lysates (50 μg) in 100 μl of 20 mM Hepes. pH 7.0, 100 mM NaCl, 5 μg of PP2Ac antibody (Millipore), and 25 μl of Protein A-agarose were added to 400 μl of 50 mM Tris, pH 7.0, 100 mM CaCl2, and IPs were carried out at 4° C. for 2 h. IPs were used in the phosphatase reaction according to the manufacturer's protocol.

[4] = tested on: β-catenin-driven (LEF/TCF) transcriptional activity; experiment: LEF/TCF reporter assay; type: cell-based, human; conditions: CD34^+/CD38^− CML and 32D-BCR/ABL cells
Method: LEF/TCF reporter assay. CD34+/CD38− CML cells were transduced with pBAR or pfuBAR (negative control) ®-catenin lentiviral reporter constructs (54), puromycin-selected and treated with the indicated drugs. Luciferase was measured using the Bright-Glo Luciferase system (Promega).

CML cells = experiment: Long term culture-initiating cell (LTC-IC) assay; type: cell-based, human; conditions: drug during first week of 6-week culture, vs untreated
Method: (§2) Long term culture-initiating cell (LTC-IC) and Colony-forming cell (CFC)/replating assays. 2×10^6 mononuclear CML cells were cultured with a 1:1 mixture of irradiated (80 Gy) IL-3/G-CSF-producing M2-10B4 and IL-3/KL-producing SI/SI murine fibroblasts in MyeloCult H5100 (StemCell Technologies) supplemented with hydrocortisone. Drugs were present during the first week of culture. Medium was replaced after 7 days, followed by weekly half-medium changes. After 6 weeks, adherent and floating cells were harvested and 5×10^4 cells plated into MethoCult H4435. LTC-IC-derived colonies were scored after 14 days. For CFC/replating, individual 14-day colonies from 10^3-10^5 CD34+/CD38− CML or 0.2×10^3-10^3 leukemic LSK cells plated in 0.9% H4435 or M3234 MethoCult, respectively, containing KL, G-CSF, GM-CSF, IL-3, IL-6, and Epo were replated and scored 2 weeks later.

CD34+/CD38− CML cells = experiment: CFC/replating assay, CML cells; type: cell-based, human
Method: as §2

[5] = tested on: normal CD34^+ progenitors; experiment: Toxicity to normal progenitors; type: cell-based, human; conditions: at concentrations that impair Ph^+ HSC survival
β-catenin = β-catenin immunofluorescence; type: cell-based, human; conditions: CD34^+/CD38^− CML, leukemic LSK, and 32D-BCR/ABL cells
From the text: Immunofluorescence and proximity ligation assay. CD34^+/CD38^− cells from CML patient samples or LSK cells derived from induced leukemic mice were sorted, treated in liquid culture with the indicated drugs and cytospun onto glass slides. Slides were fixed in 3.7% formaldehyde, penneabilized with 0.05% Triton X-100, and stained with an Anti-®-catenin primary antibody (Cell signaling), a secondary goat F(ab′) anti-rabbit conjugated to Alexa Fluor 647, and the nuclear stain DAPI (Invitrogen); slides were mounted with Slowfade antifade reagent (Invitrogen). Microphotographs were obtained with a Zeiss LSM 510 confocal laser-scanning microscope with C-Apochromat 63/1.2 W objective. A minimum of three fields for each slide were acquired. For the Proximity Ligation Assay (PLA) CD34+/CD38− CML cells were treated, fixed, and permeabilized as described above. The slides were then simultaneously stained with a mix of mouse anti-PP2A (Millipore) and rabbit anti-SET (Globozyme) antibodies. The PLA procedure (Duolink; Olink Bioscience) was performed according to manufacturer instructions. An average of 20 z-stack ([…]) were captured with a Zeiss LSM 510 confocal laser-scanning microscope with C-Apochromat 63/1.2 W objective; at least three fields/slide were acquired. Three-dimensional projections were generated and positive signals/cell were calculated by ImageJ software (NIH).

PP2A [6] = target: T1, PP2A; conditions: Roberts et al., Cancer Res 2010; cited from earlier work

With [Cl-].[Li+] [LiCl, lithium chloride] the “effect on FTY720-induced apoptosis of quiescent cells” value [1] was “abrogated FTY720-induced apoptosis”.
With CCCC(N)(CO)CCc1ccc(OCCCCCC(C)C)cc1 (stereo not shown) [OSU-2S] the “effect on CML CFSE^max cells” value ([2]; CML n=9) was “significantly reduced”, the S1PR1 internalization (S1PR1) was “without triggering S1PR1 internalization” and the B-lymphopenia (B lymphocytes) was “without triggering S1PR1 internalization or inducing B-lymphopenia”. The PP2A activation (PP2A [3]) was “activated PP2A”.
With Cn1cc(C2=C(c3ccc(Cl)cc3Cl)C(=O)NC2=O)c2ccccc21 [SB216763] the “effect on FTY720-induced apoptosis of quiescent cells” value [1] was “abrogated FTY720-induced apoptosis”.
With Cc1cnc(Nc2ccc(OCCN3CCCC3)cc2)nc1Nc1cccc(S(=O)(=O)NC(C)(C)C)c1 [TG101348] the “β-catenin transcriptional activity (LEF/TCF luciferase)” value [4] was “markedly impaired”, the “decrease in CFSE^max (quiescent) CML HSCs” value ([2]; CFSE-labeled CD34^+ CML cells, FTY720 at 2.5 μM) was 50% and the “inhibition of LTC-ICs” value (CML cells) was roughly 80%. The “reduction in replating efficiency” value (CD34+/CD38− CML cells) was roughly 75% and the “toxicity to normal CD34^+ progenitors” value [5] was “toxicity of TG101348 to normal CD34^+ progenitors”.
For C=C1[C@@H](O)[C@@H]2O[C@]3(CC[C@H](/C=C/[C@@H](C)[C@@H]4CC(C)=C[C@@]5(O[C@H](C[C@@](C)(O)C(=O)O)CC[C@H]5O)O4)O3)CC[C@H]2O[C@@H]1[C@@H](O)C[C@H](C)[C@H]1O[C@@]2(CCCCO2)CC[C@H]1C [okadaic acid], the “effect on FTY720-induced decrease of CFSE^max HSCs” value ([2]; 0.25 nM okadaic acid with FTY720) was “antagonized”.
In the case of Cc1ccc(NC(=O)c2ccc(CN3CCN(C)CC3)cc2)cc1Nc1nccc(-c2cccnc2)n1 [imatinib, imatinib mesylate], the β-catenin degradation (β-catenin) is reported as “but not imatinib (n=3) induced β-catenin degradation”.
With C=C[C@@]1(C)CC(=O)[C@@H]2[C@@]3(C)CCCC(C)(C)[C@@H]3[C@H](O)[C@H](OC(C)=O)[C@@]2(C)O1 [1,9-dideoxy-forskolin] the “β-catenin transcriptional activity (LEF/TCF luciferase)” value [4] was “markedly impaired”.
For CCCCCCCCc1ccc(CCC(N)(CO)COP(=O)(O)O)cc1 (stereo not shown) [FTY-P], the “apoptosis of quiescent/HSC-enriched CML cells” value ([1]; CFSE^max/CD34^+ or CD34^+/CD38^− CML cells) is listed as “failed to induce apoptosis” and the PP2A activity induction (PP2A [6]) is listed as “did not induce PP2A activity”.
